# Experimental data from patent publication US7282504B2, “Kinase inhibitors” (Amgen Inc., priority 2000, dated 2007).
# Experiments:
# Type in all cases: biochemical
# Tek-1 = biological target: T1, Tek-1 (Homo sapiens, UniProt Q02763); assay: Kinase inhibition, 33P transfer to plate-bound substrate: Tek-1
# T1 construct: Kinases are expressed as either kinase domains or full-length constructs; made in house
# Excerpt: (§1) The inhibitor compounds described herein are screened in the following manner. Kinases suitable for use in the following protocol to determine kinase activity of the compounds described herein include, but are not limited to: Lck, Lyn, Src, Fyn, Syk, Zap-70, Itk, Tec, Btk, EGFR, ErbB2, Kdr, Flt-1, Flt-3, Tek, c-Met, InsR, and AKT.
# (§2) Kinases are expressed as either kinase domains or full-length constructs fused to glutathione S-transferase (GST) or polyHistidine tagged fusion proteins in either E. coli or Baculovirus-High Five expression systems. They are purified to near homogeneity by affinity chromatography essentially as previously described (Lehr et al., 1996; Gish et al., 1995). In some instances, kinases are co-expressed or mixed with purified or partially purified regulatory polypeptides prior to measurement of activity.
# (§3) Kinase activity and inhibition are measured essentially by established protocols (Braunwalder et al., 1996). Briefly, The transfer of ^33PO4 from ATP to the synthetic substrates poly(Glu, Tyr) 4:1 or poly(Arg, Ser) 3:1 attached to the bioactive surface of microtiter plates serves as the basis to evaluate enzyme activity. After an incubation period, the amount of phosphate transferred is measured by first washing the plate with 0.5% phosphoric acid, adding liquid scintillant, and then counting in a liquid scintillation detector. The IC50 is determined by the concentration of compound that causes a 50% reduction in the amount of ^33P incorporated onto the substrate bound to the plate.
# EGFR-1 = biological target: T2, EGFR-1 (Homo sapiens, UniProt P00533); assay: Kinase inhibition, 33P transfer to plate-bound substrate: EGFR-1
# T2 construct: Kinases are expressed as either kinase domains or full-length constructs; made in house
# Excerpt: as §1, §2, §3
# KDR-1 = biological target: T3, KDR-1 (Homo sapiens, UniProt P35968); assay: Kinase inhibition, 33P transfer to plate-bound substrate: KDR-1
# T3 construct: Kinases are expressed as either kinase domains or full-length constructs; made in house
# Excerpt: as §1, §2, §3
# Met-1 = biological target: T4, Met-1 (Homo sapiens, UniProt P08581); assay: Kinase inhibition, 33P transfer to plate-bound substrate: Met-1
# T4 construct: Kinases are expressed as either kinase domains or full-length constructs; made in house
# Excerpt: as §1, §2, §3
# Zap-1 = biological target: T5, Zap-1 (Homo sapiens, UniProt P43403); assay: Kinase inhibition, 33P transfer to plate-bound substrate: Zap-1
# T5 construct: Kinases are expressed as either kinase domains or full-length constructs; made in house
# T5 sequence (P43403 1-619): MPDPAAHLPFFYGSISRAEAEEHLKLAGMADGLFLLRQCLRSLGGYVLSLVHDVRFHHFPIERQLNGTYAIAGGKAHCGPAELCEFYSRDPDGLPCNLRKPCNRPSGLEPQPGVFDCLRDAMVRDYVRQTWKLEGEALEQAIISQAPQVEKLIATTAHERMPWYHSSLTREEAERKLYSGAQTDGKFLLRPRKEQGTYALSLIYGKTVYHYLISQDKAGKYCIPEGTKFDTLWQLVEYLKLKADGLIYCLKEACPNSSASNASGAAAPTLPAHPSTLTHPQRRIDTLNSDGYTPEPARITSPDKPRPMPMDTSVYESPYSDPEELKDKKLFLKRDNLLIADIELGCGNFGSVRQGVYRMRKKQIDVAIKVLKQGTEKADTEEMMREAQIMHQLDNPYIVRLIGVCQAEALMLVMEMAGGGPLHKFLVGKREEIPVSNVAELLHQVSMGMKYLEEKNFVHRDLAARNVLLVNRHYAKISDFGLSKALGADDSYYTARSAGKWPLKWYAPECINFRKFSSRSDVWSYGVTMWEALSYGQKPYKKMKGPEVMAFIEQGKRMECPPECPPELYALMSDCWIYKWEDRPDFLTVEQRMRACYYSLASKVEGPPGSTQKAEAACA
# Excerpt: as §1, §2, §3
# Lck-1 = biological target: T6, Lck-1 (Homo sapiens, UniProt P06239); assay: Kinase inhibition, 33P transfer to plate-bound substrate: Lck-1
# T6 construct: Kinases are expressed as either kinase domains or full-length constructs; made in house
# Excerpt: as §1, §2, §3
# Akt3-1 = biological target: T7, Akt3-1 (Homo sapiens, UniProt Q9Y243); assay: Kinase inhibition, 33P transfer to plate-bound substrate: Akt3-1
# T7 construct: Kinases are expressed as either kinase domains or full-length constructs; made in house
# Excerpt: as §1, §2, §3
# Itk-1 = biological target: T8, Itk-1 (Homo sapiens, UniProt Q08881); assay: Kinase inhibition, 33P transfer to plate-bound substrate: Itk-1
# T8 construct: Kinases are expressed as either kinase domains or full-length constructs; made in house
# T8 sequence (Q08881 1-620): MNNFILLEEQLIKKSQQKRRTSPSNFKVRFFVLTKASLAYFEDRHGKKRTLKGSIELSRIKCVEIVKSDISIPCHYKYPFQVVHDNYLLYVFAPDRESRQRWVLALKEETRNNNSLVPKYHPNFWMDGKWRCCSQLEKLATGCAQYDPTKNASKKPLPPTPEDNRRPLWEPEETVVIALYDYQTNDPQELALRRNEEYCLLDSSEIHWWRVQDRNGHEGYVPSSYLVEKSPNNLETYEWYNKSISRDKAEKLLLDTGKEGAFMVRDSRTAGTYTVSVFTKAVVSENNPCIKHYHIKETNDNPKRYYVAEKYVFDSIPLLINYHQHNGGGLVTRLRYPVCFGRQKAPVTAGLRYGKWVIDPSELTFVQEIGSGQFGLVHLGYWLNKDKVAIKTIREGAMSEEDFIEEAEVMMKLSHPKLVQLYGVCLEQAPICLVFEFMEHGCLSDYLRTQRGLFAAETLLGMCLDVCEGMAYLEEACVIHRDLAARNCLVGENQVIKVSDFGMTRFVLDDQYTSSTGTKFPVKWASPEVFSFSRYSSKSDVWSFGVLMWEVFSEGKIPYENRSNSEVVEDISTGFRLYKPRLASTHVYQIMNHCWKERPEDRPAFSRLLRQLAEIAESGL
# Excerpt: as §1, §2, §3
# Lck-2 = biological target: T9, Lck-2 (Homo sapiens, UniProt P06239); assay: Kinase inhibition, 33P transfer to plate-bound substrate: Lck-2
# T9 construct: Kinases are expressed as either kinase domains or full-length constructs; made in house
# Excerpt: as §1, §2, §3
# PDGFRB = biological target: T10, PDGFRB (Homo sapiens, UniProt P09619); assay: Kinase inhibition, 33P transfer to plate-bound substrate: PDGFRB
# T10 construct: Kinases are expressed as either kinase domains or full-length constructs; made in house
# Excerpt: as §1, §2, §3
# ErbB2-1 = biological target: T11, ErbB2-1 (Homo sapiens, UniProt P04626); assay: Kinase inhibition, 33P transfer to plate-bound substrate: ErbB2-1
# T11 construct: Kinases are expressed as either kinase domains or full-length constructs; made in house
# Excerpt: as §1, §2, §3
# IGFR-1 = biological target: T12, IGFR-1 (Homo sapiens, UniProt P08069); assay: Kinase inhibition, 33P transfer to plate-bound substrate: IGFR-1
# T12 construct: Kinases are expressed as either kinase domains or full-length constructs; made in house
# Excerpt: as §1, §2, §3
# Fyn-1 = biological target: T13, Fyn-1 (Homo sapiens, UniProt P06241); assay: Kinase inhibition, 33P transfer to plate-bound substrate: Fyn-1
# T13 construct: Kinases are expressed as either kinase domains or full-length constructs; made in house
# Excerpt: as §1, §2, §3
# ErbB4-1 = biological target: T14, ErbB4-1 (Homo sapiens, UniProt Q15303); assay: Kinase inhibition, 33P transfer to plate-bound substrate: ErbB4-1
# T14 construct: Kinases are expressed as either kinase domains or full-length constructs; made in house
# Excerpt: as §1, §2, §3
# Src-1 = biological target: T15, Src-1 (Homo sapiens, UniProt P12931); assay: Kinase inhibition, 33P transfer to plate-bound substrate: Src-1
# T15 construct: Kinases are expressed as either kinase domains or full-length constructs; made in house
# Excerpt: as §1, §2, §3
# FGFR1-1 = biological target: T16, FGFR1-1 (Homo sapiens, UniProt P11362); assay: Kinase inhibition, 33P transfer to plate-bound substrate: FGFR1-1
# T16 construct: Kinases are expressed as either kinase domains or full-length constructs; made in house
# Excerpt: as §1, §2, §3
# Flt1-1 = biological target: T17, Flt1-1 (Homo sapiens, UniProt P17948); assay: Kinase inhibition, 33P transfer to plate-bound substrate: Flt1-1
# T17 construct: Kinases are expressed as either kinase domains or full-length constructs; made in house
# Excerpt: as §1, §2, §3
# Hck-1 = biological target: T18, Hck-1 (Homo sapiens, UniProt P08631); assay: Kinase inhibition, 33P transfer to plate-bound substrate: Hck-1
# T18 construct: Kinases are expressed as either kinase domains or full-length constructs; made in house
# Excerpt: as §1, §2
# as §3, with “The IC50 is determined by the concentration of compound that causes a 50% reduction in the amount of ^33P incorporated onto the substrate bound to the plate.” left out
# Lyn-1 = biological target: T19, Lyn-1 (Homo sapiens, UniProt P07948); assay: Kinase inhibition, 33P transfer to plate-bound substrate: Lyn-1
# T19 construct: Kinases are expressed as either kinase domains or full-length constructs; made in house
# Excerpt: as §1, §2, §3
# Ret-1 = biological target: T20, Ret-1 (Homo sapiens, UniProt P07949); assay: Kinase inhibition, 33P transfer to plate-bound substrate: Ret-1
# T20 construct: Kinases are expressed as either kinase domains or full-length constructs; made in house
# Excerpt: as §1, §2, §3
# InsR-1 = biological target: T21, InsR-1 (Homo sapiens, UniProt P06213); assay: Kinase inhibition, 33P transfer to plate-bound substrate: InsR-1
# T21 construct: Kinases are expressed as either kinase domains or full-length constructs; made in house
# Excerpt: as §1, §2, §3
# T11 sequence (P04626 23-1255): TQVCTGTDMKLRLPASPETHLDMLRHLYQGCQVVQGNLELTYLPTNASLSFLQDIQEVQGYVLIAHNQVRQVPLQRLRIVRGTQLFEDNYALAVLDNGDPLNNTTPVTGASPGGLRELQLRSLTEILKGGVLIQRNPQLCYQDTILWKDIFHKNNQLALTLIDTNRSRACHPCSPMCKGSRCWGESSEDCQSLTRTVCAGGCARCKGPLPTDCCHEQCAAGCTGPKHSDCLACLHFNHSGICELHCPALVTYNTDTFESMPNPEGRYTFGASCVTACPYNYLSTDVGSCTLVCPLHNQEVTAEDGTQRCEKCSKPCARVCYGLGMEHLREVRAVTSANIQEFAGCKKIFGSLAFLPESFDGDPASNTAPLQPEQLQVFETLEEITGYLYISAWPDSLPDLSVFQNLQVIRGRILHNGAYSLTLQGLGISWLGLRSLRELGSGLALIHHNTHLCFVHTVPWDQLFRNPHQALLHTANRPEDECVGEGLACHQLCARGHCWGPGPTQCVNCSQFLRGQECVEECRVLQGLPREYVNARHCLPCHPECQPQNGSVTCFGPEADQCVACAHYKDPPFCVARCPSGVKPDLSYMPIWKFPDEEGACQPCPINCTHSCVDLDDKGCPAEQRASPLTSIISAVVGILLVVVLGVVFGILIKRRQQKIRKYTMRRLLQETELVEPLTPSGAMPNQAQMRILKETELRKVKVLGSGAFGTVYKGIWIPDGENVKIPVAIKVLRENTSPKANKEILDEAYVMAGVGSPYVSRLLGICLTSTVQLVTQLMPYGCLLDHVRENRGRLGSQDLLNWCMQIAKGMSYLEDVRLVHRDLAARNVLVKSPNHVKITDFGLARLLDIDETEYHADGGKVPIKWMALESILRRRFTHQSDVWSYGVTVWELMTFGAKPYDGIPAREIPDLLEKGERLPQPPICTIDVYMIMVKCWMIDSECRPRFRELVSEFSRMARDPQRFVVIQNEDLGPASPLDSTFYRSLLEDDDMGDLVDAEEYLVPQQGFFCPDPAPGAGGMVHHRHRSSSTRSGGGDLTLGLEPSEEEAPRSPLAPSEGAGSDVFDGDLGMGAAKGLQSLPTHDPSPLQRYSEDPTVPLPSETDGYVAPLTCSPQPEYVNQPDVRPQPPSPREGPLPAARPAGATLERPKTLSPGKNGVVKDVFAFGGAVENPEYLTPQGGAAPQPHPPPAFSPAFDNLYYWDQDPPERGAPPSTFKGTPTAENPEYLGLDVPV
# T3 sequence (P35968 20-1356): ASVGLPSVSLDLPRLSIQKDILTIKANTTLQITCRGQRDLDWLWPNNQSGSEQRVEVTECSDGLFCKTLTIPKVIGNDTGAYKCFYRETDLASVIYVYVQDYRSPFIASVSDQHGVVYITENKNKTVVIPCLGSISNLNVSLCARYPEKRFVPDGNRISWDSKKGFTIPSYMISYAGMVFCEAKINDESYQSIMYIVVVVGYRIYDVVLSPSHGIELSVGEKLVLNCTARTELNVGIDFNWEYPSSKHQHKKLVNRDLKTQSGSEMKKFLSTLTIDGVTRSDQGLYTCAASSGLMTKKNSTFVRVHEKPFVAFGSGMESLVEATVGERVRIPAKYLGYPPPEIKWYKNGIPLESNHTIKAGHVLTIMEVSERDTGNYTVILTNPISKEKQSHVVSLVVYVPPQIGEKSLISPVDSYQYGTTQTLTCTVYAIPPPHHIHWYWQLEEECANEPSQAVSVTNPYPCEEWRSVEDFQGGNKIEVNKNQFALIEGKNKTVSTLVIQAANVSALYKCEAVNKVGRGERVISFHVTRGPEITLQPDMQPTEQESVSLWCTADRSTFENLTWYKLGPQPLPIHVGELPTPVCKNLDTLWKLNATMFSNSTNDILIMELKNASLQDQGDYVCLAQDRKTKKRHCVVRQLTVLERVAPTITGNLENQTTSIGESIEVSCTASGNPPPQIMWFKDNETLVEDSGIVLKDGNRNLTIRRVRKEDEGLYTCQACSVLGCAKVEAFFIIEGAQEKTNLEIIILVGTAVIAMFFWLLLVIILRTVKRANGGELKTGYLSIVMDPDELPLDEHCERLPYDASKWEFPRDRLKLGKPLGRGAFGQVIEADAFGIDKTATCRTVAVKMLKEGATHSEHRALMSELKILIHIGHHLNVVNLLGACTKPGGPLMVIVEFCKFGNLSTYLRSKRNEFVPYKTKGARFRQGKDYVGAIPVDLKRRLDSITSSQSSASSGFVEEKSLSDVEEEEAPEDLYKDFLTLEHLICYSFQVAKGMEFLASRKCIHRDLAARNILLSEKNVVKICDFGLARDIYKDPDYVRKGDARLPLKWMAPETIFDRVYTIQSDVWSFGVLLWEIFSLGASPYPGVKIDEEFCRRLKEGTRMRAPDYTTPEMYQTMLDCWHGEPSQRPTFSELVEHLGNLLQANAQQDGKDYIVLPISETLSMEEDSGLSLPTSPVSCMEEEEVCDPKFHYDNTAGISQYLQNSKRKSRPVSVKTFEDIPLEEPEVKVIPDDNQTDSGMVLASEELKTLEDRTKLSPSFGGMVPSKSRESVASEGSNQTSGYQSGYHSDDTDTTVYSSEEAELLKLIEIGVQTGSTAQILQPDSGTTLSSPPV
# T7 sequence (Q9Y243 whole entry, the tested form may be a part): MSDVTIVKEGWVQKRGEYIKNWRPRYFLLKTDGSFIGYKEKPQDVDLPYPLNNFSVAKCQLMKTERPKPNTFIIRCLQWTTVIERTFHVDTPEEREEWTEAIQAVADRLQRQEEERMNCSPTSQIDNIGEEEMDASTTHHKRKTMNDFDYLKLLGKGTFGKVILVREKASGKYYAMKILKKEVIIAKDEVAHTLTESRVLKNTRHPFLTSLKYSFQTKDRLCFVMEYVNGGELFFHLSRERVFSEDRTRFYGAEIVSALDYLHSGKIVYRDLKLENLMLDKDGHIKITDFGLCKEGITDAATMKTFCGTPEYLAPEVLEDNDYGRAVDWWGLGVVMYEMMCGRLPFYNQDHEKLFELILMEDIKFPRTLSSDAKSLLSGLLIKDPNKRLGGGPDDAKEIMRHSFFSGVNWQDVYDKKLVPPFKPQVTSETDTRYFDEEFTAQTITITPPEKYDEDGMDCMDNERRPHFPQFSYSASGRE
# T10 sequence (P09619 33-1106, species assumed): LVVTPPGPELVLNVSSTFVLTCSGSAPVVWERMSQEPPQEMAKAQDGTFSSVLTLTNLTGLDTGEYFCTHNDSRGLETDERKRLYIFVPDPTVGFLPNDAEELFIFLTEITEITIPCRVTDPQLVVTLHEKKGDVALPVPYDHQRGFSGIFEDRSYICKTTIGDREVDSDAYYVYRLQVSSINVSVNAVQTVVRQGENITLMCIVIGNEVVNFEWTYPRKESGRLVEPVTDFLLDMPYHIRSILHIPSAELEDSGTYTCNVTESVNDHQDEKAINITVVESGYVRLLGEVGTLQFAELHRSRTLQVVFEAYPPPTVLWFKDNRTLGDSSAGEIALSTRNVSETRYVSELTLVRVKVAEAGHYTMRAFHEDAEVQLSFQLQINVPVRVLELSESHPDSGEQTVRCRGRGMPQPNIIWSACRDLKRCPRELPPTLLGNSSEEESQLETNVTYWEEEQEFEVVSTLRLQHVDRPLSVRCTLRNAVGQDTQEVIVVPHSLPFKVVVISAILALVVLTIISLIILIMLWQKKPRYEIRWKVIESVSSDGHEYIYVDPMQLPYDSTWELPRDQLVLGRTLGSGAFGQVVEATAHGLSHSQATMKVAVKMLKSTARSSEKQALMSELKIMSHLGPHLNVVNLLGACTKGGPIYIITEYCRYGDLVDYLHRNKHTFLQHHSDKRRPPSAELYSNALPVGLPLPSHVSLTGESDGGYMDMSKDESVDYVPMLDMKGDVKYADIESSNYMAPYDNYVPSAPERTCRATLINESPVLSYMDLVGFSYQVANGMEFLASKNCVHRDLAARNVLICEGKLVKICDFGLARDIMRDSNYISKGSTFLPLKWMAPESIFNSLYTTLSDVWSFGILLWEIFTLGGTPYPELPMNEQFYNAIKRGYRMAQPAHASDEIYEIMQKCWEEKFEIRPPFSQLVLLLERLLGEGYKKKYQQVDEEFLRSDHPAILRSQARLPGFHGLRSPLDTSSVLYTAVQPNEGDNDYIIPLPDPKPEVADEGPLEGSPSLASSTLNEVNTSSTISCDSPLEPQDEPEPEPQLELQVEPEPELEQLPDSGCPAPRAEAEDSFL
# T9 sequence (P06239 whole entry, the tested form may be a part): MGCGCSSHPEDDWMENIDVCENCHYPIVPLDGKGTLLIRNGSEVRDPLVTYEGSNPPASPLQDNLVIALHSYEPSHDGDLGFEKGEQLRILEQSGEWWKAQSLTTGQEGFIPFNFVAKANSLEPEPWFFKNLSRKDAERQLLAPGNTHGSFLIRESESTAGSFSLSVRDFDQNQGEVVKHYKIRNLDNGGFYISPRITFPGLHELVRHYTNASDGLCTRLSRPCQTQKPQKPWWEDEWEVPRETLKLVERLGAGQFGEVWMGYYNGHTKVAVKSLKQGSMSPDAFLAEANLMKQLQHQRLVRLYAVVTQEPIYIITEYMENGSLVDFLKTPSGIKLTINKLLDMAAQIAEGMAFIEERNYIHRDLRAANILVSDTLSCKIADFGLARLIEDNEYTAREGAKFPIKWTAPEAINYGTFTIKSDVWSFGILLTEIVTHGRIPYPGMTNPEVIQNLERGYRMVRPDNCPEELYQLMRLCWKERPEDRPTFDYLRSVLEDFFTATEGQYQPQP
# T6 sequence (P06239 whole entry, the tested form may be a part): as above
IC50 (Tek-1),IC50 (EGFR-1),IC50 (KDR-1),IC50 (Met-1),IC50 (Zap-1),IC50 (Lck-1),IC50 (Akt3-1),IC50 (Itk-1),IC50 (Lck-2),IC50 (PDGFRB),IC50 (ErbB2-1),IC50 (IGFR-1),Structure (SMILES),other results
≥ 10 µM,≥ 10 µM,5 to 10 µM,5 to 10 µM,≥ 10 µM,5 to 10 µM,5 to 10 µM,5 to 10 µM,1.5 to 5 µM,–,–,–,COc1cc(Nc2nccc(-n3c(N)nc4ccccc43)n2)cc(OC)c1OC [Compound 11],–
≥ 10 µM,≥ 10 µM,≥ 10 µM,≥ 10 µM,≥ 10 µM,≥ 10 µM,≥ 10 µM,≥ 10 µM,≥ 10 µM,≥ 10 µM,≥ 10 µM,≥ 10 µM,COc1cc(Nc2nccc(-n3c(=O)oc4ccccc43)n2)cc(OC)c1OC [Compound 25],–
5 to 10 µM,≥ 10 µM,< 1.5 µM,1.5 to 5 µM,≥ 10 µM,< 1.5 µM,≥ 10 µM,1.5 to 5 µM,< 1.5 µM,< 1.5 µM,–,–,COc1cc(Nc2nccc(-n3ccc4ccccc43)n2)cc(OC)c1OC [Compound 31],IC50 (Fyn-1): < 1.5 µM; IC50 (ErbB4-1): 1.5 to 5 µM; IC50 (Src-1): < 1.5 µM; IC50 (FGFR1-1): < 1.5 µM; IC50 (Flt1-1): < 1.5 µM; IC50 (Hck-1): ≥ 10 µM; IC50 (Lyn-1): < 1.5 µM
≥ 10 µM,≥ 10 µM,5 to 10 µM,≥ 10 µM,≥ 10 µM,≥ 10 µM,≥ 10 µM,–,≥ 10 µM,–,–,–,COc1cc(Nc2ccnc(-n3ccc4ccccc43)n2)cc(OC)c1OC [Compound 32],–

# The remaining lines, values behind:
Structure (SMILES),IC50 (Tek-1),IC50 (EGFR-1),IC50 (KDR-1),IC50 (Met-1),IC50 (Zap-1),IC50 (Lck-1),IC50 (Akt3-1),IC50 (Itk-1),IC50 (Lck-2),IC50 (PDGFRB),IC50 (ErbB2-1),IC50 (IGFR-1),other results
COc1cc(Nc2nccc(-n3ccc(-c4ccc(Cl)cc4)n3)n2)cc(OC)c1OC [Compound 33],–,≥ 10 µM,≥ 10 µM,≥ 10 µM,5 to 10 µM,≥ 10 µM,≥ 10 µM,≥ 10 µM,≥ 10 µM,≥ 10 µM,≥ 10 µM,≥ 10 µM,–
COc1ccc(-c2ccn(-c3ccnc(Nc4cc(OC)c(OC)c(OC)c4)n3)n2)cc1 [Compound 34],–,5 to 10 µM,≥ 10 µM,≥ 10 µM,5 to 10 µM,≥ 10 µM,≥ 10 µM,≥ 10 µM,≥ 10 µM,≥ 10 µM,≥ 10 µM,≥ 10 µM,–
COc1cc(Nc2nccc(Nc3cc(C(C)(C)C)n[nH]3)n2)cc(OC)c1OC [Compound 35],–,5 to 10 µM,1.5 to 5 µM,< 1.5 µM,≥ 10 µM,< 1.5 µM,≥ 10 µM,1.5 to 5 µM,< 1.5 µM,1.5 to 5 µM,≥ 10 µM,< 1.5 µM,IC50 (Fyn-1): 1.5 to 5 µM; IC50 (ErbB4-1): 5 to 10 µM; IC50 (Ret-1): 1.5 to 5 µM; IC50 (Src-1): < 1.5 µM; IC50 (FGFR1-1): 5 to 10 µM; IC50 (InsR-1): < 1.5 µM; IC50 (Flt1-1): 5 to 10 µM; IC50 (Lyn-1): < 1.5 µM
